Data on 2 molecules can be found in ChEMBL document CHEMBL4680342, “Discovery of DB18, a potent inhibitor of CLK kinases with a high selectivity against DYRK1A kinase” (Bioorg Med Chem, 2021).

One may read the IC50 as the concentration needed to halve the response being measured.

Data set [1] has as its target Cyclin-dependent kinase 5/CDK5 activator 1 (Homo sapiens) (UniProt Q00535+Q15078). Description: Inhibition of human CDK5/p25 assessed as residual activity at 10 uM by ADP-Glo assay relative to control. Type of data set: protein-complex assay.
Data set [2] deals with CDK9/cyclin T1 (Homo sapiens) (UniProt O60563+P50750). Description: Inhibition of human CDK9/CyclinT assessed as residual activity at 10 uM by ADP-Glo assay relative to control. Type of data set: protein-complex assay. (ADP-Glo turns the ADP formed in a reaction into a luminescent signal.)
Data set [3] deals with Serine/threonine-protein kinase pim-1 (Homo sapiens) (UniProt P11309). Description: Inhibition of human PIM1 assessed as residual activity at 10 uM by ADP-Glo assay relative to control.
The target of data set [4] is Dual specificity protein kinase CLK1 (Mus musculus) (UniProt P22518). Description: Inhibition of mouse CLK1 assessed as residual activity at 10 uM by ADP-Glo assay relative to control.
Data set [5] addresses T1, Serine/threonine-protein kinase haspin (Homo sapiens) (UniProt Q8TF76).
T1 sequence (whole entry): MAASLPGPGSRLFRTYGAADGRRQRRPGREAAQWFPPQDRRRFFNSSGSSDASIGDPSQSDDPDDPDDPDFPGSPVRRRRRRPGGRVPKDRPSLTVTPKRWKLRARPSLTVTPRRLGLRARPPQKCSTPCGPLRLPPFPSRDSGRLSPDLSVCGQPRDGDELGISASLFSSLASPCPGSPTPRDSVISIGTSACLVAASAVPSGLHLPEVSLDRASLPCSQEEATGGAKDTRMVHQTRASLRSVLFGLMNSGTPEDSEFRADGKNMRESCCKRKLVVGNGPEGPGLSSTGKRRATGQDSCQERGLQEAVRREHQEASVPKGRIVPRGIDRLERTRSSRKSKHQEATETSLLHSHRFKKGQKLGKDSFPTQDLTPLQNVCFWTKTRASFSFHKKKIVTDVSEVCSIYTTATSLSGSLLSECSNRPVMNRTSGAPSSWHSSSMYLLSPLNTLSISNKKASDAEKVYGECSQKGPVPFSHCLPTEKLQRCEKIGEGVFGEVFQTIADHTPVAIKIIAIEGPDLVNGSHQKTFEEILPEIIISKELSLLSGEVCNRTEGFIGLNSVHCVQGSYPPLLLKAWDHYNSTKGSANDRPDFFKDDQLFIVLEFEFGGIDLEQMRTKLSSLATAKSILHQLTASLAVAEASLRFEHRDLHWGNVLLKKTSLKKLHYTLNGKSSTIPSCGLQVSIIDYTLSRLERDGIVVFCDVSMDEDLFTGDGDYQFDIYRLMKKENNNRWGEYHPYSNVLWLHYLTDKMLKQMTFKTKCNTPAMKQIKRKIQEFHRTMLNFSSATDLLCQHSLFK
Description: Inhibition of human HASPIN assessed as residual activity at 10 uM by ADP-Glo assay relative to control.

Data set [6] has as its target Dual specificity tyrosine-phosphorylation-regulated kinase 1A (Homo sapiens, UniProt Q13627). Description: Inhibition of human DYRK1A at 100 uM by ADP-Glo assay.
For data set [7], the target named is Dual specificity tyrosine-phosphorylation-regulated kinase 1B (Homo sapiens, UniProt Q9Y463). Description: Inhibition of human DYRK1B at 100 uM by ADP-Glo assay.
Data set [8] has as its target T2, Dual specificity tyrosine-phosphorylation-regulated kinase 2 (Homo sapiens, UniProt Q92630).
T2 sequence (Q92630 whole entry): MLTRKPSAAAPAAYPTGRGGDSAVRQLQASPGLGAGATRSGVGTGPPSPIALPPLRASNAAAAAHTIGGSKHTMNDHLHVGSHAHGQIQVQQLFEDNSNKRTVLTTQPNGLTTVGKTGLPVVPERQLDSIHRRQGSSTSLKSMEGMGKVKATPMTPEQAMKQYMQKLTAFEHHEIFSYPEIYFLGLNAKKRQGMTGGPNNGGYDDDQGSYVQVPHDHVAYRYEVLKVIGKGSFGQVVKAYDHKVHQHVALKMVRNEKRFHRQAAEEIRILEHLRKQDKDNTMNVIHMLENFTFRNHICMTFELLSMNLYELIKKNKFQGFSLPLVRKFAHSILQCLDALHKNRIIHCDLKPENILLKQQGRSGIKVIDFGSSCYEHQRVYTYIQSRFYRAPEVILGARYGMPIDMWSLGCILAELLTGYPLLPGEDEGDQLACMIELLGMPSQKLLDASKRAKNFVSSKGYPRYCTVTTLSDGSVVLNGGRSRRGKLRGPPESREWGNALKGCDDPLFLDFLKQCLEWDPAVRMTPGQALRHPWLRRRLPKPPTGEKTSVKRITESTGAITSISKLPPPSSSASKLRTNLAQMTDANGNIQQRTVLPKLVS
The experiment in a line: Inhibition of human DYRK2 at 100 uM by ADP-Glo assay.

In data set [9] the target is Dual specificity tyrosine-phosphorylation-regulated kinase 1A (Rattus norvegicus, UniProt Q63470). Description: Inhibition of rat DYRK1A (1 to 499 residues) assessed as residual activity at 100 uM by ADP-Glo assay.
Data set [10] addresses Dual specificity protein kinase CLK1 (Mus musculus) (UniProt P22518). Description: Inhibition of mouse CLK1 assessed as residual activity by ADP-Glo assay.
Data set [11] has as its target DYRK1A (dual specificity tyrosine-phosphorylation-regulated kinase 1A) (Rattus norvegicus, UniProt Q63470). Description: Inhibition of rat DYRK1A (1 to 499 residues) assessed as residual activity at 10 uM by ADP-Glo assay relative to control. As to conditions: rat DYRK1A enzyme (residues 1 to 499), read-out: Activity; call rule not given here.
Data set [12] concerns the target Glycogen synthase kinase-3 beta (Homo sapiens) (UniProt P49841). Description: Inhibition of human GSK3beta assessed as residual activity at 10 uM by ADP-Glo assay relative to control.
In data set [13] the target is Casein kinase I isoform epsilon (Homo sapiens) (UniProt P49674). Description: Inhibition of human CK1epsilon assessed as residual activity at 10 uM by ADP-Glo assay relative to control.
Casein kinase I isoform epsilon (Homo sapiens), sequence (P49674 whole entry, looked up, canonical isoform): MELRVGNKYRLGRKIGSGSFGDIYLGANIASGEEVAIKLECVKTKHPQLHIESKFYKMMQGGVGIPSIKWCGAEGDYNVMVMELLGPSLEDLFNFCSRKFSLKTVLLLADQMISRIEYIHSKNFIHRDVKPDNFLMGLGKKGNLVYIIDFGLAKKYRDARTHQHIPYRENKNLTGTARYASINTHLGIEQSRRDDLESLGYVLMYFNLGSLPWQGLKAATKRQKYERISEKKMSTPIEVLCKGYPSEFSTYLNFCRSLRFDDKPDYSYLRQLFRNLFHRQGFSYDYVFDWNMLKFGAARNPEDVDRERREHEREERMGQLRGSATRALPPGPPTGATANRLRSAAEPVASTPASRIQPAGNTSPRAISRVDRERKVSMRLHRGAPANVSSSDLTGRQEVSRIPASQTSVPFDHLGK

Dual specificity protein kinase CLK1 (Mus musculus), sequence (P22518 whole entry, looked up, the tested form may be a part): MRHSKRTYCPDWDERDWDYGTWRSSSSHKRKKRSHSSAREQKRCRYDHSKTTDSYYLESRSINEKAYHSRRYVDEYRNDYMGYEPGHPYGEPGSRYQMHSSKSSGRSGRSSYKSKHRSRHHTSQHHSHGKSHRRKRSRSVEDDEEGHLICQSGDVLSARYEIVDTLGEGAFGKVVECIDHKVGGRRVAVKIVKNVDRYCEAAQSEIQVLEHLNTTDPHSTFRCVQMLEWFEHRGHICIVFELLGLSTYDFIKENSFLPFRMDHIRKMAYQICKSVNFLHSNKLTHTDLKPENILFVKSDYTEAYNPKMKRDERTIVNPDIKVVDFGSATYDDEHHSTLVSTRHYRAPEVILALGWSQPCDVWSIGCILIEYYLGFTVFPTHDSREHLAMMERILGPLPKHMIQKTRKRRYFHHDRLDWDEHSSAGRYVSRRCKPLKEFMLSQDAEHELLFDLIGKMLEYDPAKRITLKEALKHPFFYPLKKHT
Cyclin-dependent kinase 5/CDK5 activator 1 (Homo sapiens), sequence (Q00535 whole entry): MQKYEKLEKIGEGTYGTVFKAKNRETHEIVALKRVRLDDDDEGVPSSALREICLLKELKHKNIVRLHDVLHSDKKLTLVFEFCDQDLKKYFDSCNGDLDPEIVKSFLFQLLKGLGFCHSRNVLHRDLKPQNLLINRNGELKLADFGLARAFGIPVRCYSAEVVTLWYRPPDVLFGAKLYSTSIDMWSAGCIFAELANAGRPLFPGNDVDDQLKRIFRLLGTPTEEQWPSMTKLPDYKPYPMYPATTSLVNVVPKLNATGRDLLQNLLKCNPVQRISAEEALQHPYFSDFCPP
Cyclin-dependent kinase 5/CDK5 activator 1 (Homo sapiens), sequence (Q15078 99-307 partner limits assumed): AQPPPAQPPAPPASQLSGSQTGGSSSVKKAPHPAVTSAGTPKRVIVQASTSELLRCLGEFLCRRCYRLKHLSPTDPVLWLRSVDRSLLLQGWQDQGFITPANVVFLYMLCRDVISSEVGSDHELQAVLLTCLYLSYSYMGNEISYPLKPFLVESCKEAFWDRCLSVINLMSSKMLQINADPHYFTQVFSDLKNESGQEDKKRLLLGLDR
Serine/threonine-protein kinase pim-1 (Homo sapiens), sequence (P11309 whole entry, looked up): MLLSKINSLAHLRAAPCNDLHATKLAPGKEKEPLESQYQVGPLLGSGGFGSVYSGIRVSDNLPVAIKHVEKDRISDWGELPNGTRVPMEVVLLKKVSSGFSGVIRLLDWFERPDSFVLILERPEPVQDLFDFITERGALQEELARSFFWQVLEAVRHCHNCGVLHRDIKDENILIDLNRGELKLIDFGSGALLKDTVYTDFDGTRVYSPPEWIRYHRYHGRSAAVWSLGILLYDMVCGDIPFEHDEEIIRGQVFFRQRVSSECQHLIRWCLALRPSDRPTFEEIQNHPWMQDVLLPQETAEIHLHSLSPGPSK
Dual specificity tyrosine-phosphorylation-regulated kinase 1B, sequence (Q9Y463 whole entry): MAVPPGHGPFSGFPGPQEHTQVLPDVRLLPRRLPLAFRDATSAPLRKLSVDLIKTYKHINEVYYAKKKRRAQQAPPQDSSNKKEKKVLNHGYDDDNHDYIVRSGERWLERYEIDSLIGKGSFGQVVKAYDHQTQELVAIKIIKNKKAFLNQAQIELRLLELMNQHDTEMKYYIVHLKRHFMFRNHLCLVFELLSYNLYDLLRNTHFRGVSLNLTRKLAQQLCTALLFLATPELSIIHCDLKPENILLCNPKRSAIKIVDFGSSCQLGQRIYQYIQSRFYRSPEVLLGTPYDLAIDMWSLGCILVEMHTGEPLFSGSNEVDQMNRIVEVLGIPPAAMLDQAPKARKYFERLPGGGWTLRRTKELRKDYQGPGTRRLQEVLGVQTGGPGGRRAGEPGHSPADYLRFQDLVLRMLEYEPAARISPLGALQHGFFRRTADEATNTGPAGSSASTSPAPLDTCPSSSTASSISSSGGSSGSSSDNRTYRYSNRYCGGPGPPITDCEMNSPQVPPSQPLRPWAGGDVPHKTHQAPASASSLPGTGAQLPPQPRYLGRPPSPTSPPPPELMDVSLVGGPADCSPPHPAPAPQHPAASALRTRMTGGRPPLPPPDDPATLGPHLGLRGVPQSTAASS
Glycogen synthase kinase-3 beta (Homo sapiens), sequence (P49841 whole entry, looked up, canonical isoform): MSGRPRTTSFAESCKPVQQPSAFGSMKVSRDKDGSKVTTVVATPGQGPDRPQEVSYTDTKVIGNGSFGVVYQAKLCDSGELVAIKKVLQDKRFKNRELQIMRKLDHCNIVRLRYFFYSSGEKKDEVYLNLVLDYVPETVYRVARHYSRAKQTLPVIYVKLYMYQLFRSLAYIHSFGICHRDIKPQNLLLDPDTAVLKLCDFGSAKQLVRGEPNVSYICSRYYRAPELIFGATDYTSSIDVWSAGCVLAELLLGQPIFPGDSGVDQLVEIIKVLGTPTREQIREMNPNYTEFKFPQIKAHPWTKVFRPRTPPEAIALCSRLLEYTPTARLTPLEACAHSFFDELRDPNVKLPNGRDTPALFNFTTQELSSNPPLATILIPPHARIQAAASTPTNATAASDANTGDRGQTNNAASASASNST

`Cc1ccc(-n2cc(COc3cccc4cnc(Nc5cccc(Cl)c5)nc34)nn2)c([N+](=O)[O-])c1`: the Activity in [1] was 84%; in data set [2], 54%; in data set [3], 81%; in data set [4], 11%; in data set [5] it was 94%. Also, the “inhibition (INH)” value in data set [6], in data set [7], in data set [8] and in data set [9] was “Not Active” each time. For the same molecule, the IC50 in [10] stood at 120 nM.
Regarding `Cc1ccc(-n2cc(COc3cccc4cnc(Nc5cccc(Cl)c5)nc34)nn2)cc1[N+](=O)[O-]`, the Activity amounted to 40% in data set [1]; 25% in data set [2]; 45% in [3]; 16% in data set [4]; 44% in [5]; 14% in data set [12]. In [13], the Activity worked out at 41%. Further, in [11], the activity at 10 µM stood at 74%. Also, in data set [10], the IC50 was found to be 3000 nM.
